The experiment has as its target human MGL from HeLa cells (Homo sapiens (Human), UniProt Q99685). The experiment in a line: MGL in vitro activity assay ([glycerol-1,3-3H]-oleoyl glycerol hydrolysis, activated carbon filtration). It is filed as biochemical. As to conditions: 300 nM [Glycerol-1,3-3H]-oleoyl glycerol, one hour. Summed up:
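Activity measured as tritium in the flow-through after activated carbon filtration of a 1 h reaction containing 300 nM 3H-oleoyl glycerol, compound and HeLa-derived human MGL. Compounds screened at 10 μM; IC50 series start at an empirically chosen highest concentration.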
human MGL from HeLa cells, sequence (Q99685 whole entry): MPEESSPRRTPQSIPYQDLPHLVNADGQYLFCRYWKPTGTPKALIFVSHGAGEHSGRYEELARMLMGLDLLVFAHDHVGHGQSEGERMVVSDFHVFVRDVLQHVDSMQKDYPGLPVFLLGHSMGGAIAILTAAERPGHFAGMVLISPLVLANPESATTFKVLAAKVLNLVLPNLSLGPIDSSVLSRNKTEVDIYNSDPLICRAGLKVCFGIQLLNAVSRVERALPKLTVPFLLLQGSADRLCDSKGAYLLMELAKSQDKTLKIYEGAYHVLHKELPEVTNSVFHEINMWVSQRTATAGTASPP
On to `Cn1ncc2cc(C3CCC4(CC3)CN(C(=O)[C@H]3C[C@@](C)(O)C3)C4)ccc21` [Example 122, ((1s,3s)-3-Hydroxy-3-methylcyclobutyl)(7-(1-methyl-1H-indazol-5-yl)-2-azaspiro[3.5]nonan-2-yl)methanone], for which the IC50 – broadly, the concentration at which inhibition is half-maximal – is 143 nM. This lies in the sub-micromolar range.

Compound `Cn1nc(C(F)(F)F)cc1CC1CC2(C1)CN(C(=O)[C@H]1C[C@@](C)(O)C1)C2` [Example 214, ((1s,3s)-3-Hydroxy-3-methylcyclobutyl)(6-((1-methyl-3-(trifluoromethyl)-1H-pyrazol-5-yl)methyl)-2-azaspiro[3.3]heptan-2-yl)methanone] had a concentration for half-maximal inhibition (IC50) of 417 nM.

`Cn1ccc2ccc(CC3CC4(C3)CN(C(=O)[C@H]3C[C@@](C)(O)C3)C4)nc21` [Example 224, ((1s,3s)-3-Hydroxy-3-methylcyclobutyl)(6-((1-methyl-1H-pyrrolo[2,3-b]pyridin-6-yl)methyl)-2-azaspiro[3.3]heptan-2-yl)methanone] showed an IC50 of 27 nM.

In turn, `CC(C)c1cccc(CC2CC3(C2)CN(C(=O)[C@H]2C[C@@](C)(O)C2)C3)c1` [Example 186, ((1s,3s)-3-Hydroxy-3-methylcyclobutyl)(6-(3-isopropylbenzyl)-2-azaspiro[3.3]heptan-2-yl)methanone] displayed an IC50 of 4.7 nM.

The compound `Cc1cccc(CC2CCC3(CC2)CN(C(=O)[C@H]2C[C@@](C)(O)C2)C3)c1` [Example 159, ((1s,3s)-3-Hydroxy-3-methylcyclobutyl)(7-(3-methylbenzyl)-2-azaspiro[3.5]nonan-2-yl)methanone] yielded an IC50 of 31 nM. This IC50 lies about 6.6-fold higher than the previous one.

`Cc1ccc(OC2CCC3(C2)CN(C(=O)[C@H]2C[C@@](C)(O)C2)C3)cc1C(F)(F)F` (mixture of isomers) [Example 256, (rac)-((1s,3s)-3-Hydroxy-3-methylcyclobutyl)(6-(4-methyl-3-(trifluoromethyl)phenoxy)-2-azaspiro[3.4]octan-2-yl)methanone] registered an IC50 of 74 nM.

Take `Cn1cc(F)c2ccc(CC3CC4(C3)CN(C(=O)[C@H]3C[C@@](C)(O)C3)C4)nc21` [Example 293, (6-((3-Fluoro-1-methyl-1H-pyrrolo[2,3-b]pyridin-6-yl)methyl)-2-azaspiro[3.3]heptan-2-yl)((1s,3s)-3-hydroxy-3-methylcyclobutyl)methanone]: the half-maximal inhibitory concentration (IC50) was 10 nM.

In the case of `C[C@]1(O)C[C@@H](C(=O)N2CC3(CCC(c4ccc(C(F)(F)F)cc4)C3)C2)C1` (mixture of isomers) [Example 55, (rac)-((1s,3s)-3-Hydroxy-3-methylcyclobutyl)(6-(4-(trifluoromethyl)phenyl)-2-azaspiro[3.4]octan-2-yl)methanone], 22 nM corresponded to half-maximal inhibition (IC50).

Regarding `Cc1ccc(CC2CC3(C2)CN(C(=O)[C@H]2C[C@@](C)(O)C2)C3)cc1C` [Example 188, (6-(3,4-Dimethylbenzyl)-2-azaspiro[3.3]heptan-2-yl)((1s,3s)-3-hydroxy-3-methylcyclobutyl)methanone], it took 4.3 nM to reach half-maximal inhibition (IC50).

`Cc1cc(C)cc([C@H]2CC[C@]3(CC2)CN(C(=O)[C@H]2C[C@@](C)(O)C2)[C@H]3C)c1` (stereo in doubt) [Example 348, ((1*S,4r,7*S)-7-(3,5-Dimethylphenyl)-1-methyl-2-azaspiro[3.5]nonan-2-yl)((1s,3*R)-3-hydroxy-3-methylcyclobutyl)methanone]: the half-inhibitory concentration (IC50) was determined as 326 nM.

`C[C@]1(O)C[C@@H](C(=O)N2CC3(CC(Cc4ccc(OC(F)(F)F)cc4)C3)C2)C1` [Example 220, ((1s,3s)-3-Hydroxy-3-methylcyclobutyl)(6-(4-(trifluoromethoxy)benzyl)-2-azaspiro[3.3]heptan-2-yl)methanone] displayed an IC50 of 1.1 nM.

Compound `C[C@]1(O)C[C@@H](C(=O)N2CC3(CC(Cc4ccncc4)C3)C2)C1` [Example 206, ((1s,3s)-3-Hydroxy-3-methylcyclobutyl)(6-(pyridin-4-ylmethyl)-2-azaspiro[3.3]heptan-2-yl)methanone] gave a 50% inhibitory concentration (IC50) of 1140 nM.

With `CCc1cc(OC(F)(F)F)cc(C2CCC3(CC2)CN(C(=O)[C@H]2C[C@@](C)(O)C2)C3)c1` [Example 148, (7-(3-Ethyl-5-(trifluoromethoxy)phenyl)-2-azaspiro[3.5]nonan-2-yl)((1s,3s)-3-hydroxy-3-methylcyclobutyl)methanone], the concentration for half-maximal inhibition (IC50) was 9.4 nM.

Regarding `C[C@H](c1ccc2cnn(C)c2c1)C1CC2(C1)CN(C(=O)[C@H]1C[C@@](C)(O)C1)C2` (stereo in doubt) [Example 315, ((1s,3*R)-3-Hydroxy-3-methylcyclobutyl)(6-((*S)-1-(1-methyl-1H-indazol-6-yl)ethyl)-2-azaspiro[3.3]heptan-2-yl)methanone], the half-inhibitory concentration (IC50) was 45 nM.

Turning to `Cn1ccc2ccc(CC3CCC4(CC3)CN(C(=O)[C@H]3C[C@@](C)(O)C3)C4)nc21` [Example 401, ((1s,3s)-3-Hydroxy-3-methylcyclobutyl)(7-((1-methyl-1H-pyrrolo[2,3-b]pyridin-6-yl)methyl)-2-azaspiro[3.5]nonan-2-yl)methanone], the concentration for half-maximal inhibition (IC50) is 66 nM.

As for `CC(C)(C)n1cnc(C2CCC3(CC2)CN(C(=O)[C@H]2C[C@@](C)(O)C2)C3)c1` [Example 381, (7-(1-(tert-Butyl)-1H-imidazol-4-yl)-2-azaspiro[3.5]nonan-2-yl)((1s,3s)-3-hydroxy-3-methylcyclobutyl)methanone], the IC50 turned out to be 1390 nM.

The compound `C[C@]1(O)C[C@@H](C(=O)N2CC3(CC(c4ccc5ccncc5c4)C3)C2)C1` [Example 30, ((1s,3s)-3-Hydroxy-3-methylcyclobutyl)(6-(isoquinolin-7-yl)-2-azaspiro[3.3]heptan-2-yl)methanone] displayed a 50% inhibitory concentration (IC50) of 1180 nM.

Take `C[C@]1(O)C[C@@H](C(=O)N2CC3(CCC(c4cccc(C(F)(F)F)c4)C3)C2)C1` (mixture of isomers) [Example 61, (rac)-((1s,3s)-3-Hydroxy-3-methylcyclobutyl)(6-(3-(trifluoromethyl)phenyl)-2-azaspiro[3.4]octan-2-yl)methanone]: it took 29 nM to reach half-maximal inhibition (IC50).

With `C[C@]1(O)C[C@@H](C(=O)N2CC3(CC(Cc4cccc(C(F)(F)F)c4)C3)C2)C1` [Example 193, ((1s,3s)-3-Hydroxy-3-methylcyclobutyl)(6-(3-(trifluoromethyl)benzyl)-2-azaspiro[3.3]heptan-2-yl)methanone], it took 5.8 nM to reach half-maximal inhibition (IC50).

Take `CC(C)c1cccc(C2CC3(C2)CN(C(=O)[C@H]2C[C@@](C)(O)C2)C3)c1` [Example 3, ((1s,3s)-3-Hydroxy-3-methylcyclobutyl)(6-(3-isopropylphenyl)-2-azaspiro[3.3]heptan-2-yl)methanone]: 24 nM corresponded to half-maximal inhibition (IC50).

For the compound `Cn1cnc(-c2cccc(C3CCC4(CC3)CN(C(=O)[C@H]3C[C@@](C)(O)C3)C4)c2)c1` [Example 345, ((1s,3s)-3-Hydroxy-3-methylcyclobutyl)(7-(3-(1-methyl-1H-imidazol-4-yl)phenyl)-2-azaspiro[3.5]nonan-2-yl)methanone], it took 187 nM to reach half-maximal inhibition (IC50). This IC50 lies about 7.8-fold higher than the previous one.

`Cc1ccc(C(F)(F)F)cc1C1CCC2(C1)CN(C(=O)[C@H]1C[C@@](C)(O)C1)C2` (mixture of isomers) [Example 78, (rac)-((1s,3s)-3-Hydroxy-3-methylcyclobutyl)(6-(2-methyl-5-(trifluoromethyl)phenyl)-2-azaspiro[3.4]octan-2-yl)methanone] came in with a half-inhibitory concentration (IC50) of 11 nM. This IC50 lies about 17-fold lower than the previous one.

`COc1cc(C2CCC3(C2)CN(C(=O)[C@H]2C[C@@](C)(O)C2)C3)ccc1Cl` (mixture of isomers) [Example 87, (rac)-(6-(4-Chloro-3-methoxyphenyl)-2-azaspiro[3.4]octan-2-yl)((1s,3s)-3-hydroxy-3-methylcyclobutyl)methanone] came in with an IC50 of 105 nM.

Consider `COc1cc(C(F)F)ccc1CC1CC2(C1)CN(C(=O)[C@H]1C[C@@](C)(O)C1)C2` [Example 275, (6-(4-(Difluoromethyl)-2-methoxybenzyl)-2-azaspiro[3.3]heptan-2-yl)((1s,3s)-3-hydroxy-3-methylcyclobutyl)methanone], for which half-maximal inhibition (IC50) was put at 0.44 nM.

As to `C[C@]1(O)C[C@@H](C(=O)N2CC3(CC(Cc4cccc(OC(F)(F)F)c4)C3)C2)C1` [Example 194, ((1s,3s)-3-Hydroxy-3-methylcyclobutyl)(6-(3-(trifluoromethoxy)benzyl)-2-azaspiro[3.3]heptan-2-yl)methanone], the IC50 stood at 4.9 nM.

For `CC(c1cccc2ccnn12)C1CC2(C1)CN(C(=O)[C@H]1C[C@@](C)(O)C1)C2` (mixture of isomers) [Example 316, (rac)-((1s,3s)-3-Hydroxy-3-methylcyclobutyl)(6-(1-(pyrazolo[1,5-a]pyridin-7-yl)ethyl)-2-azaspiro[3.3]heptan-2-yl)methanone], the concentration for half-maximal inhibition (IC50) worked out at 49 nM.

In the case of `Cc1c(OC2CC3(C2)CN(C(=O)[C@H]2C[C@@](C)(O)C2)C3)cccc1C(F)(F)F` [Example 252, ((1s,3s)-3-Hydroxy-3-methylcyclobutyl)(6-(2-methyl-3-(trifluoromethyl)phenoxy)-2-azaspiro[3.3]heptan-2-yl)methanone], the IC50 was 47 nM.

The compound `C[C@]1(O)C[C@@H](C(=O)N2CC3(CCC(c4cc(Cl)cc(OC(F)(F)F)c4)CC3)C2)C1` [Example 149, (7-(3-Chloro-5-(trifluoromethoxy)phenyl)-2-azaspiro[3.5]nonan-2-yl)((1s,3s)-3-hydroxy-3-methylcyclobutyl)methanone] gave a 50% inhibitory concentration (IC50) of 1.7 nM. Against the preceding compound, the IC50 is about 28-fold lower.

Compound `Cn1cc(F)c2ccc(OC3CCC4(CC3)CN(C(=O)[C@H]3C[C@@](C)(O)C3)C4)nc21` [Example 474, (7-((3-Fluoro-1-methyl-1H-pyrrolo[2,3-b]pyridin-6-yl)oxy)-2-azaspiro[3.5]nonan-2-yl)((1s,3s)-3-hydroxy-3-methylcyclobutyl)methanone] came in with a half-maximal inhibitory concentration (IC50) of 5.5 nM.

On to `Cc1ccc(C2CCC3(CC2)CN(C(=O)[C@H]2C[C@@](C)(O)C2)C3)cc1Cl` [Example 22, (7-(3-Chloro-4-methylphenyl)-2-azaspiro[3.5]nonan-2-yl)((1s,3s)-3-hydroxy-3-methylcyclobutyl)methanone], for which it took 12 nM to reach half-maximal inhibition (IC50).

On to `Cc1cc(CC2CCC3(C2)CN(C(=O)[C@H]2C[C@@](C)(O)C2)C3)ccc1C(F)(F)F` (mixture of isomers) [Example 204, (rac)-((1s,3s)-3-Hydroxy-3-methylcyclobutyl)(6-(3-methyl-4-(trifluoromethyl)benzyl)-2-azaspiro[3.4]octan-2-yl)methanone], for which the half-inhibitory concentration (IC50) stood at 3.9 nM.

The values are drawn from patent US11802111B2, “Cyclobutyl amide monoacylglycerol lipase modulators” (Janssen Pharmaceutica NV, priority 2020, dated 2023).
